Data on one compound can be found in patent US20250163029A1, “PYRIDONE OR PYRIMIDONE DERIVATIVE AND APPLICATION THEREOF” (Medshine Discovery Inc., priority 2022, published 2025).

Structures can show the parent of a compound that is named as a salt. Where two headings read alike, the source gives them in different places.

The nature of series [1]: Pharmacokinetic (PK) assay in mice. Type of series: in vivo, C57BL6/J strain mice. As to conditions: C57BL6/J, plasma; for AUC: mouse. As to the method: Objective of assay: The druggability of compounds was evaluated by measuring their pharmacokinetic properties in different animal species.
Assay Materials: C57BL6/J strain mice, Sprague-Dawley strain rats and beagle dogs.
The pharmacokinetic characteristics of the compound after intravenous and oral administration were assayed in animals using a standard protocol. In the assay, the candidate compound was prepared into a clear solution (intravenous injection) or a homogeneous suspension (oral administration) and administrated to the animal once. Whole blood samples were collected within 24 hours, and centrifuged at 3200 g for 10 minutes. The supernatant was separated to obtain a plasma sample. The blood concentration was quantitatively analyzed by LC-MS/MS analysis method, and pharmacokinetic parameters such as peak concentration, time to peak, clearance rate, half-life, and area under the drug-time curve were calculated.

The subject of series [2] is plasma protein. The series can be described thus: Plasma protein binding rate (PPB), beagle dogs. Type of series: in vitro ADME. To be noted: 2 μM, 4 hours dialysis. As to the method: (§1) 597 μL of blank plasma from CD-1 mice, SD rats, beagle dogs, cynomolgus monkeys and humans were weighed, and the working solution of the assay compound or the working solution of warfarin was added, so that the final concentration of the assay compound and warfarin in the plasma sample was 2 μM. The samples were mixed thoroughly. The final concentration of DMSO as an organic phase was 0.5%; 50 μL of the assay compound and warfarin plasma samples were pipetted into a sample receiving plate, and the corresponding volume of blank plasma or buffer was immediately added, so that the final volume of each sample well was 100 μL, and the volume ratio of plasma:dialysis buffer was 1:1, and then the stop solution was added to these samples. The samples were used as the To sample for recovery and stability determination. The assay compound and warfarin plasma samples were added to the dosing end of each dialysis well, and blank dialysis buffer was added to the receiving end corresponding to the dialysis well. Then the dialysis plate was sealed with a gas permeable membrane and placed in a humidified 5% CO2 incubator, and incubated with shaking at 37° C. and 100 rpm for 4 hours. […] After protein precipitation, all samples were analyzed by LC/MS/MS, and the free rate (% Unbound) of the compound was calculated by the following formula: […]

Series [3] deals with plasma protein. Description: Plasma protein binding rate (PPB), cynomolgus monkeys. In kind it is in vitro ADME. To be noted: Cynomolgus monkey plasma, 2 μM, 4 hours dialysis. On the procedure: as §1
Series [4] deals with plasma protein. Description: Plasma protein binding rate (PPB), CD-1 mice. In kind it is in vitro ADME. To be noted: 2 μM, 4 hours dialysis. As to the method: as §1

In the case of `Cn1cnc(Cc2cn(Cc3cc(F)c(F)cc3F)c(Nc3cc4cn(C)nc4cc3Cl)nc2=O)n1` [Compound 4 hydrochloride], the AUC in series [1] (iv, 1 mg/kg, IV, 1 mpk, read-out: AUC) amounted to 32.8 µM·h; in series [1] (iv, 1 mg/kg, IV, 1 mpk, read-out: AUCfree), 0.92 µM·h; in series [1] (po, 5 mg/kg, PO, 5 mpk, read-out: AUC), 145 µM·h; in series [1] (po, 5 mg/kg, PO, 5 mpk, read-out: AUCfree) it was 4.1 µM·h. In addition, in series [1] (1 mg/kg, Mouse, IV, 1 mpk), the Vd – broadly, the apparent volume that relates the amount in the body to the concentration in plasma or blood – worked out at 0.23 L/kg. In addition, the clearance (commonly the rate of elimination divided by the concentration) in series [1] (1 mg/kg, Mouse, IV, 1 mpk) turned out to be 0.98 mL/min/kg. Also, the half-life (in general, the time needed for the level to fall by half in the phase considered) in series [1] (1 mg/kg, Mouse, IV, 1 mpk) was 2.6 h; in series [1] (5 mg/kg, Mouse, PO, 5 mpk), 2.7 h. Also, the highest level in series [1] (5 mg/kg, Mouse, PO, 5 mpk) (Cmax) was 31 µM. Besides, in series [1] (5 mg/kg, Mouse, PO, 5 mpk), the Tmax (commonly the time from dosing to the highest level) was determined as 0.75 h. In addition, in series [1] (5 mg/kg, Mouse, PO, 5 mpk), the bioavailability (commonly the share of a dose that reaches the circulation, judged against a reference dose that is usually intravenous) worked out at 88%. Also, the figures for the “PPB_Unbound (%)” value in the series with plasma protein [2], in the series on plasma protein [3] and in the series with plasma protein [4] were 23.9%, 18.8% and 2.8%, respectively.
